The text below walks through data of article PMC12175177 (Frontiers in Pharmacology, 2025).

Assay type in all cases: cell-based
The subject of test [1] is SARS-CoV-2 Delta variant (SEQ203). The note with it: for % inhibition Vero E6 Delta MOI 0.0001 / % inhibition Vero E6 Delta MOI 0.01: at MNCC, 48 h; for % inhibition Vero E6 Delta MOI 0.0001: 1x; for % inhibition Vero E6 Delta MOI 0.01: mean 2x.
The test system of test [2] is SARS-CoV-2 A2.5 variant (M2169). The note with it: for % inhibition Calu-3 A2.5 MOI 0.01: at MNCC, 48 h, mean 2x.
The subject of test [3] is SARS-CoV-2 A2.5 variant. Nature of the test: microbe, parasite or virus in culture.
In test [4] the test system is SARS-CoV-2 Delta variant.
Test [5] has as its system SARS-CoV-2 A2.5 variant.
The subject of test [6] is SARS-CoV-2 Delta variant. The source holds these as a separate data set.
Test [7] concerns SARS-CoV-2 A2.5 variant (M2169). The conditions noted are these: for % inhibition Vero E6 A2.5 MOI 0.01: at MNCC, 48 h, 1x.
Test [8] relates to SARS-CoV-2 Delta variant (SEQ203). The conditions noted are these: at MNCC, 48 h, 1x.
Where [9] appears, read: Severe acute respiratory syndrome coronavirus 2, Vero C1008, 72 h, read-out: IC50%.
Where [10] appears, read: Severe acute respiratory syndrome coronavirus 2, Vero C1008, 72 h, read-out: IC50% in µg/mL.
The mark [11] stands for this setting: Severe acute respiratory syndrome coronavirus 2, Vero C1008, read-out: IC50 (Figure 4 curve).
[12] abbreviates: Severe acute respiratory syndrome coronavirus 2, Vero C1008, read-out: IC90%.
[13] abbreviates: Severe acute respiratory syndrome coronavirus 2, Vero C1008, read-out: IC90% in µg/mL.

Converted amounts (≈) assume the structure as drawn. Counter-ions that a name gives are not always drawn. Like-named read-outs stand apart in the source and are kept apart here. Some results are limits rather than exact numbers.

As for `CCN(CC)CCCC(C)Nc1ccnc2cc(Cl)ccc12` (stereo not shown) [Chloroquine diphosphate (CQ), Chloroquine diphosphate], the “antiviral inhibition at MOI = 0.00001” value in test [1] is reported as not below 20%. The “less potent against the Delta compared to the A2.5 variant” value in test [1] is on record as 20%. In test [1], the “% inhibition Vero E6 Delta MOI 0.0001” value worked out at 44%. In addition, the “inhibition of A.2.5 infection in Calu-3 compared to camostat (CAM)” value in test [2] (Calu-3) was “two-fold less”. Moreover, the IC50 in the test with SARS-CoV-2 A2.5 variant [3] (setting [9]) came to 6.3 µM; in the test with SARS-CoV-2 A2.5 variant [3] (setting [10]) it was 2 µg/mL; in the test with SARS-CoV-2 A2.5 variant [3] (setting [11]), 6.27 µM. The figures for the IC90 in the test on SARS-CoV-2 A2.5 variant [3] (setting [12]) and in the test on SARS-CoV-2 A2.5 variant [3] (setting [13]) were 56.7 µM and 18.1 µg/mL, respectively. Further, the “antiviral effect, treatment 1 hour post-infection, Delta” value in the test on SARS-CoV-2 Delta variant [4] is recorded as “dose-dependent antiviral effect”. Further, the “effect on viral replication, treatment 1 hour pre-infection, Delta” value with SARS-CoV-2 Delta variant [4] is reported as “did not influence the viral replication”. The “period of most of the inhibitory effect, A2.5” value in the test on SARS-CoV-2 A2.5 variant [5] is “during the adsorption phase”. The “less susceptible to CQ than to PQ, A2.5” value with SARS-CoV-2 A2.5 variant [5] (Vero-E6, same time interval) is reported as 2–4 orders of magnitude. Also, in the test on SARS-CoV-2 Delta variant [6], the “period of most of the inhibitory effect, Delta” value was “during the adsorption phase”. Also, the “less susceptible to CQ than to PQ, Delta” value in the test on SARS-CoV-2 Delta variant [6] (Vero-E6, same time interval) was 2–4 orders of magnitude.

For the molecule `C[C@H]1[C@H](OC(=O)CCC(=O)O)O[C@@H]2O[C@@]3(C)CC[C@H]4[C@H](C)CC[C@@H]1[C@@]24OO3` [Artesunate injection (ASi), Artesunate], in test [1], the “antiviral inhibition at MOI = 0.00001” value is reported as not below 20%. Further, the “less potent against the Delta compared to the A2.5 variant” value in test [1] is 20%. The “% inhibition Vero E6 Delta MOI 0.0001” value in test [1] turned out to be 41%. Also, in test [7], the “% inhibition Vero E6 A2.5 MOI 0.01” value stood at 0%. For the same molecule, in test [2], the “% inhibition Calu-3 A2.5 MOI 0.01” value worked out at 10%. The figures for the IC50 in the test on SARS-CoV-2 A2.5 variant [3] (setting [9]) and with SARS-CoV-2 A2.5 variant [3] (setting [10]) were 28.7 µM and 11 µg/mL, respectively. In addition, the results for the IC90 in the test with SARS-CoV-2 A2.5 variant [3] (setting [12]) and in the test with SARS-CoV-2 A2.5 variant [3] (setting [13]) were 258 µM and 99.3 µg/mL, respectively.

For the molecule `NC(=O)c1ncn([C@@H]2O[C@H](CO)[C@@H](O)[C@H]2O)n1` [Ribavirin (RIB), Ribavirin], in test [1], the “antiviral inhibition at MOI = 0.00001” value is not below 20%, the “% inhibition Vero E6 Delta MOI 0.0001” value came out at 44% and the “% inhibition Vero E6 Delta MOI 0.01” value came out at 8%. In test [7], the “% inhibition Vero E6 A2.5 MOI 0.01” value came to 9%. Besides, the “% inhibition Calu-3 Delta MOI 0.01” value in test [8] was -6%. In addition, in test [2], the “% inhibition Calu-3 A2.5 MOI 0.01” value is on record as 11%.

Regarding `COc1cc(NC(C)CCCN)c2ncccc2c1` (stereo not shown) [Primaquine Phosphate (PQ), Primaquine Phosphate], in test [1], the “% inhibition Vero E6 Delta MOI 0.0001” value came out at 2% and the “% inhibition Vero E6 Delta MOI 0.01” value was 18%. For the same molecule, in test [2], the “% inhibition Calu-3 A2.5 MOI 0.01” value is 10%. In the test on SARS-CoV-2 A2.5 variant [3] (setting [9]), the IC50 was 15.3 µM. Moreover, the IC50 in the test on SARS-CoV-2 A2.5 variant [3] (setting [10]) was found to be 5 µg/mL. Besides, the IC50 with SARS-CoV-2 A2.5 variant [3] (setting [11]) is 19.3 µM. For the same molecule, the IC90 in the test on SARS-CoV-2 A2.5 variant [3] (setting [12]) came out at 138 µM. For the same molecule, the IC90 in the test on SARS-CoV-2 A2.5 variant [3] (setting [13]) turned out to be 35.7 µg/mL. In the test on SARS-CoV-2 Delta variant [4], the “antiviral effect, treatment 1 hour post-infection, Delta” value was “dose-dependent antiviral effect” and the “effect on viral replication, treatment 1 hour pre-infection, Delta” value is listed as “did not influence the viral replication”. Further, in the test on SARS-CoV-2 A2.5 variant [5], the “effect on viral load, time of addition, A2.5” value is “substantially lower viral load” and the “period of most of the inhibitory effect, A2.5” value is recorded as not above 3 h. Moreover, in the test on SARS-CoV-2 Delta variant [6], the “effect on viral load, time of addition, Delta” value is recorded as “substantially lower viral load” and the “period of most of the inhibitory effect, Delta” value is on record as not above 5 h.

As to `CCN(CCO)CCCC(C)Nc1ccnc2cc(Cl)ccc12` (stereo not shown) [Hydroxychloroquine sulfate (HCQ), Hydroxychloroquine sulfate], the “less potent against the Delta compared to the A2.5 variant” value in test [1] is 40%. The “% inhibition Vero E6 Delta MOI 0.0001” value in test [1] is on record as 43%. For the same molecule, the “% inhibition Vero E6 Delta MOI 0.01” value in test [1] is 10%. The “times more potent against A2.5 than Delta” value in test [7] (Vero-E6) came to 1.8 times. Moreover, the “% inhibition Vero E6 A2.5 MOI 0.01” value in test [7] came out at 29%. Moreover, the “% inhibition Calu-3 Delta MOI 0.01” value in test [8] is reported as 9%; in test [8] (listed as HCQ) it was “effective”. Moreover, the “% inhibition Calu-3 A2.5 MOI 0.01” value in test [2] amounted to 16%. In addition, the IC50 was found to be 12.6 µM in the test on SARS-CoV-2 A2.5 variant [3] (setting [9]), 5.8 µg/mL in the test on SARS-CoV-2 A2.5 variant [3] (setting [10]) and 13.3 µM in the test with SARS-CoV-2 A2.5 variant [3] (setting [11]). The IC90 in the test on SARS-CoV-2 A2.5 variant [3] (setting [12]) was 113 µM; with SARS-CoV-2 A2.5 variant [3] (setting [13]) it was 38.1 µg/mL.

For the molecule `CCc1nc(N)nc(N)c1-c1ccc(Cl)cc1` [Pyrimethamina (PYR), Pyrimethamina], in test [1], the “antiviral inhibition at MOI = 0.00001” value was not below 20%, the “% inhibition Vero E6 Delta MOI 0.0001” value stood at 34% and the “% inhibition Vero E6 Delta MOI 0.01” value came out at 9%. Further, the “% inhibition Vero E6 A2.5 MOI 0.01” value in test [7] came out at 0%. Besides, in test [8], the “% inhibition Calu-3 Delta MOI 0.01” value is reported as 3%. For the same molecule, the “% inhibition Calu-3 A2.5 MOI 0.01” value in test [2] is recorded as 0%.

For the molecule `CC[C@H]1OC(=O)[C@H](C)[C@@H](O[C@H]2C[C@@](C)(OC)[C@@H](O)[C@H](C)O2)[C@H](C)[C@@H](O[C@@H]2O[C@H](C)C[C@H](N(C)C)[C@H]2O)[C@](C)(O)C[C@@H](C)CN(C)[C@H](C)[C@@H](O)[C@]1(C)O` [Azithromycin dehydrate (AZH), Azithromycin dehydrate], in test [1], the “antiviral inhibition at MOI = 0.00001” value was not below 20%, the “% inhibition Vero E6 Delta MOI 0.0001” value stood at 25% and the “% inhibition Vero E6 Delta MOI 0.01” value is listed as 8%. Further, the “% inhibition Vero E6 A2.5 MOI 0.01” value in test [7] amounted to 0%. For the same molecule, the “% inhibition Calu-3 Delta MOI 0.01” value in test [8] was determined as 2%. The “% inhibition Calu-3 A2.5 MOI 0.01” value in test [2] was determined as 19%.

On to `CC[C@H](C)[C@H]1O[C@]2(CC[C@@H]1C)C[C@@H]1C[C@@H](C/C=C(\C)[C@@H](O[C@H]3C[C@H](OC)[C@@H](O[C@H]4C[C@H](OC)[C@@H](O)[C@H](C)O4)[C@H](C)O3)[C@@H](C)/C=C/C=C3\CO[C@@H]4[C@H](O)C(C)=C[C@@H](C(=O)O1)[C@]34O)O2` [Ivermectin (IVM), Ivermectin], for which, in test [1], the “% inhibition Vero E6 Delta MOI 0.0001” value was determined as 19% and the “% inhibition Vero E6 Delta MOI 0.01” value stood at 11%. In test [7], the “% inhibition Vero E6 A2.5 MOI 0.01” value is on record as 5%. The “% inhibition Calu-3 Delta MOI 0.01” value in test [8] came out at 17%. In test [2], the “% inhibition Calu-3 A2.5 MOI 0.01” value is 15%. Also, in the test on SARS-CoV-2 A2.5 variant [3], the “IC50%” value was 63.6 µg/mL (≈ 72.7 µM). Further, the IC50 with SARS-CoV-2 A2.5 variant [3] (read-out: IC50%) worked out at 72.7 µM.
